# Measurements: patent publication US20220395500A1, “SMALL MOLECULE ACTIVATORS OF INTERFERON REGULATORY FACTOR 3 AND METHODS OF USE THEREOF” (Neuralexo, Inc., priority 2020, published 2022)
# Where two headings read alike, the source gives them in different places.
# Assays:
# [1] = system: IRF-Lucia luciferase reporter (ISRE) in J774-Dual cells; assay: J774-Dual IRF-Lucia luciferase reporter assay (ISRE activation); assay type: cell-based, mouse
# Outline: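 Eight-point dose-response in J774-Dual mouse macrophage-like cells gave EC50, plus CC50 by in-plate CellTiter-Glo, and ISRE:NF-κB ratios. Cells plated 24 h at 37 °C, 5% CO2 without differentiation; supernatant Lucia luciferase and SEAP measured with QUANTI-Luc and QUANTI-Blue.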
# [2] = system: NF-κB-SEAP reporter in THP1-Dual cells; assay: THP1-Dual NF-κB-SEAP reporter counterscreen; assay type: cell-based, human; conditions: for EC50: read-out: THP1 NFkB EC50
# Method: THP1 Dual (InvivoGen) cell suspensions were cultured in RPMI 1640 (Hyclone, Logan, Utah) supplemented with 10% fetal bovine serum (Hyclone), 100 U/mL Normocin (Invivogen), and 50 U/mL PenStrep (Gibco, Dublin, Ireland) between a density of 7·10^5-2·10^6 cells/mL. Every other passage, media was supplemented with 5 U/mL Blasticidin and 100 U/mL Zeocin to maintain the expression constructs. White, flat-bottom 384-well plates (Greiner, Kremsmunster, Austria, 781080) were seeded with 2.5·10^4 cells/well in a total of 50 μL media containing 5 ng/mL phorbolmyristic acid (PMA) using a Matrix WellMate (Thermo Scientific) dispenser. After 48 hours of incubation at 37° C., media was removed using a BioTek ELx405 CW plate washer set to aspirate and wash each well three times with 65 μL 1×PBS. Plates were reloaded with 50 μL media without PMA and treatments added. Lipopolysaccharide in dimethylsulfoxide (DMSO) was transferred to control wells using a HP D300 microdispenser to a final concentration of 313 ng/mL. Compounds from chemical library plates were copied using a Sciclone (Caliper LifeSciences) mounted with a 384-pin transfer tool to obtain a final concentration of 10 μM. After incubation with treatments for 24 hours, 10 μL of supernatant media from each well was transferred into a white, flat-bottom 384-well plate for luminescence readout and a black-walled, clear flat-bottom 384-well plate for absorbance readout.
# Specifically, to enable screening of novel chemical entities (NCEs) in a larger screening effort, a robust high-throughput cell-based assay system for primary hit identification of ISRE activators based on the above-mentioned target validation was desired. Human ISRE activity was verified using a THP-1 monocyte line containing the NF-κB-SEAP and IRF-Lucia luciferase dual reporter (THP1-Dual; Invivogen) that features two reporter genes, SEAP (secreted embryonic alkaline phosphatase) and Lucia luciferase, thereby enabling the simultaneous study of the NF-κB and IRF signalling pathways. The Lucia luciferase reporter is under the control of an ISG54 (interferon-stimulated gene) minimal promoter in conjunction with five IFN-stimulated response elements. The SEAP gene is driven by an IFN-β minimal promoter fused to five copies of the NF-κB consensus transcriptional response element and three copies of the c-Rel binding site. Both reporter proteins are readily measurable in the cell culture supernatant when using QUANTI-LUC™ and QUANTI-Blue SEAP detection reagents.
# Using the experimental design and data analysis outlined above, optimized assay conditions were obtained. The responsiveness of the human THP-1 Dual cell line was evaluated in an array of assay conditions to obtain sensitive and reproducible results for the activation of IRF and NF-κB reporters. An optimal plating density and differentiation protocol for these cells was established in a 384-well format. All transfer steps are fully automated using high throughput robotic equipment. Briefly, cells are seeded in differentiation medium using a Matrix WellMate fitted with the WellMate Stacker (Thermo Scientific) and incubated at 37° C. with 5% CO2 for 48 h. Following differentiation, cells are washed using a BioTek ELx405 Select CW plate washer and growth medium added with the Matrix WellMate. Programmed control treatments are added to wells using a D300 digital dispenser fitted with T8+ dispense heads (Hewlett Packard) designed to dispense nanoliter quantities of material. Compounds from library plates are added using a pin tool fitted to a Sciclone ALH 3000 Workstation (Caliper Life Sciences) programmed with Maestro v4.4. After treatment, plates are returned to incubators for 24 hours. To measure reporter expression, supernatant is collected using the Sciclone and dispensed into 2 plates: 1) a white 384-well assay plate for Lucia luminescence measurements and 2) a clear-bottom black 384-well assay plate for SEAP absorbance measurements. […]
# [3] = Mus musculus, J774, Mouse Reporter Cell Line, 8-point dose response, read-out: J774 IRF EC50
# [4] = Homo sapiens, THP1-Dual, Human Reporter Cell Line, 8-point dose response
# [5] = Mouse Reporter Cell Line J774, at peak
# [6] = Mus musculus, J774, Mouse Reporter Cell Line J774, read-out: J774 IRF EC50
# [7] = Homo sapiens, THP1-Dual, Human Reporter Cell Line THP1
Compound,J774 IRF % activation at peak ([1]; Mouse Reporter Cell Line) [%],"EC50 [1, 3] [µM]","EC50 [2, 4] [µM]","J774 IRF % activation at peak [1, 5] [%]","EC50 [1, 6] [µM]","EC50 [2, 7] [µM]",also measured
O=C(Nc1ccc(N2CCN(C(=O)c3ccsc3)CC2)cc1)c1ccc(OCc2ccccc2)nc1 [NA-1],67.54,~3.06,2.07,–,–,–,–
Cc1ccc(-c2nc3ccccc3s2)cc1NC(=O)c1cccc(Cl)c1 [ND-80],–,–,–,26.88,~10.1,~6.55,–
O=C(Nc1ccc(N2CCN(C(=O)c3cccs3)CC2)cc1)c1ccc(Cl)c2ccccc12 [NA13],3.434,0.821,1.22,–,–,–,–
O=C(Nc1ccc(N2CCN(C(=O)c3cccs3)CC2)cc1)c1ccc(OCc2cccc(Cl)c2)cc1 [NA-33],15.46,2.64,1.62,–,–,–,–
Cc1ccc(NC(=O)c2cc(NC(=O)c3ccccc3)ccc2N2CCOCC2)cc1Cl [NB-1],–,–,–,54.52,6.57,2.54,–
Cc1ccc(NC(=O)c2cc(NC(=O)c3cccs3)ccc2N2CCOCC2)cc1Cl [NB-8],–,–,–,52.86,5.67,13.9,–
O=C(Nc1ccc(N2CCN(C(=O)c3cccs3)CC2)cc1)c1ccc(OCc2ccccc2)nc1 [NA-59],150.5,3.09,~2.57,–,–,–,–
O=C(Nc1ccc(N2CCN(C(=O)c3cccs3)CC2)cc1)c1sc2cc(Cl)ccc2c1Cl [NA-20],29.98,4.19,2.76,–,–,–,–
O=C(Nc1ccc(N2CCN(C(=O)c3cccs3)CC2)cc1)c1ccc(OCc2ccc(F)c(F)c2F)cc1 [NA-23],–,–,~2.31,–,–,–,–
"CCOc1cccc(COc2ccc(C(=O)Nc3ccc(N4CCN(C(=O)c5cccs5)CC4)cc3)cc2)c1 [NA42, 4-((3-ethoxybenzyl)oxy)-N-(4-(4-(thiophene-2-carbonyl)piperazin-1-yl)phenyl)benzamide]",191.2,3.9,3.04,–,–,–,–
CC(C)CC(=O)Nc1ccc2oc(-c3cccc(I)c3)nc2c1 [ND-5],–,–,–,12.45,~12.9,12.3,–
Cc1cc(NC(=O)c2sc3cc(Cl)ccc3c2Cl)ccc1NC(=O)c1ccco1 [NC-2],4.6,14.6,15.4,–,–,–,–
COc1ccc(C(=O)Nc2cc(-c3nc4ccccc4s3)ccc2C)cc1[N+](=O)[O-] [ND-38],–,–,–,114,–,–,"EC50 ([1]; Mouse Reporter Cell Line J774, read-out: J774 IRF EC50): 7.67 µM; EC50 ([2]; Human Reporter Cell Line THP1): ~3.12 µM"
COc1ccc(C(=O)Nc2nc(-c3cc4ccccc4oc3=O)cs2)cc1 [ND-1],–,–,–,28.40,8.82,~12.7,–
Cc1ccc(NC(=O)c2cc(NC(=O)c3cccs3)ccc2N2CCOCC2)cc1 [NB-17],–,–,–,16.67,8.68,~3.14,–
"COc1ccc(C(=O)Nc2cc(-c3nc4ccccc4s3)ccc2C)cc1[N+](=O)[O-] [ND52, N-[5-(1,3-benzothiazol-2-yl)-2-methylphenyl]-4-methoxy-3-nitrobenzamide]",–,–,–,131.7,5.87,~5.51,–
O=C(Nc1ccc(N2CCN(C(=O)c3cccs3)CC2)cc1)c1ccc(-c2ccncc2)cc1 [NA-38],2.98,~10.2,3.46,–,–,–,–
"Cc1ccc2c(=O)c3cccc(CC(=O)O)c3oc2c1C [DMXAA, 5,6-dimethylxanthenone-4-acetic acid]",–,–,–,–,–,–,"EC50 ([1]; Mus musculus, J774-Dual control compound, read-out: EC50 ISRE activation): 24 µM"

Compound,J774 IRF % activation at peak ([1]; Mouse Reporter Cell Line) [%],"EC50 [1, 3] [µM]","EC50 [2, 4] [µM]","J774 IRF % activation at peak [1, 5] [%]","EC50 [1, 6] [µM]","EC50 [2, 7] [µM]",also measured
O=C(Nc1ccc(N2CCN(C(=O)c3cccs3)CC2)cc1)c1ccc(-c2ccccc2)cn1 [NA-39],77.89,9.81,7.91,–,–,–,–
COc1ccc(C(=O)Nc2cc(-c3nc4cc(C(C)C)ccc4o3)ccc2C)cc1[N+](=O)[O-] [ND-2],–,–,–,141.80,4.81,4.47,–
CCOc1ccc(C(=O)Nc2ccc(N3CCN(C(=O)c4cccs4)CC3)cc2)cc1Br [NA-30],2.95,~3.33,1.05,–,–,–,–
ClCCCOc1ccc(-c2nc3cc(OCCCN4CCCC4)ccc3o2)cc1 [ND-94],–,–,–,5.09,4.53,~23.6,–
"COc1cccc(COc2ccc(C(=O)Nc3ccc(N4CCN(C(=O)c5cccs5)CC4)cc3)cc2)c1 [NA-24, 4-((3-methoxybenzyl)oxy)-N-(4-(4-(thiophene-2-carbonyl)piperazin-1-yl)phenyl)benzamide]",111.2,4.67,4.16,–,–,–,–
O=C(Nc1ccc(N2CCN(C(=O)c3cccs3)CC2)cc1)c1ccc(-c2ccccc2)nc1 [NA-41],37.71,10.6,12.5,–,–,–,–
"O=C(Nc1ccc(N2CCN(C(=O)c3cccs3)CC2)cc1)c1cccc2c(Br)cccc12 [NA-21, 5-bromo-N-{4-[4-(2-thienylcarbonyl)-1-piperazinyl]phenyl}-1-naphthamide]",38.86,1.01,1.08,–,–,–,–
COCOc1ccc2oc(-c3ccc(C)c([N+](=O)[O-])c3)nc2c1 [ND-96],–,–,–,5.389,18.9,~4.09,–
COc1ccc(C(=O)Nc2ccc(OCc3ccccc3)cc2)cc1[N+](=O)[O-] [NA-44],2.085,7.38,0.92,–,–,–,–
"COCOc1ccc2oc(-c3ccc(C)c(NC(=O)c4ccc(OC)c([N+](=O)[O-])c4)c3)nc2c1 [ND-95, 4-methoxy-N-(5-(5-(methoxymethoxy)benzo[d]oxazol-2-yl)-2-methylphenyl)-3-nitrobenzamide]",–,–,–,98.11,4.1,1.27,–
"COc1ccc(C(=O)Nc2cc(-c3nc4cc(C)c(C)cc4o3)ccc2C)cc1[N+](=O)[O-] [ND13, N-(5-(5,6-dimethylbenzo[d]oxazol-2-yl)-2-methylphenyl)-4-methoxy-3-nitrobenzamide]",–,–,–,220.5,0.956,0.556,–
O=C(Cc1ccc(Cl)cc1)Nc1cccc(-c2nnc(-c3ccco3)o2)c1 [ND-7],–,–,–,–,–,6,–
Cc1ccc(COc2ccc(C(=O)Nc3ccc(N4CCN(C(=O)c5cccs5)CC4)cc3)cc2)cc1 [NA-25],18.01,4.38,5,–,–,–,–
O=C(Nc1ccc(N2CCN(C(=O)c3cccs3)CC2)cc1)c1ccc(Br)cc1 [NA-14],4.471,5.23,~2.42,–,–,–,–
COc1ccc(C(=O)Nc2cccc(-c3nc4ncccc4o3)c2)cc1Br [ND-47],–,–,–,–,–,2.1,–
Cc1ccc(NC(=O)c2cc(NC(=O)Cc3ccccc3)ccc2N2CCOCC2)cc1Cl [NB-3],–,–,–,2.603,8.54,–,"activation at 25 µM ([2]; THP1-Dual, 24 h, Human Reporter Cell Line THP1, @25 uM, read-out: THP1 NFkB % activation at peak): 38%"
Cc1c(Br)ccc(C(=O)Nc2ccc(N3CCN(C(=O)c4cccs4)CC3)cc2)c1C [NA-16],–,–,~5.23,–,–,–,–
